# Bridges are numbered along the chain shown (N, C = ends). Where no end group is shown, it is not given here. [ ]: non-standard residue; d: D form. 1Nal = N[C@@H](Cc1cccc2ccccc12)C(=O)O; Sar = CNCC(=O)O
# How the values were obtained:
# [1] = biological target: T1, EPO-R (Homo sapiens, UniProt P19235); test: Competitive binding assay (AlphaQuest bead proximity, AQ); conditions: Table 2; competition with biotinylated EPO-R-binding peptide tracer
# T1 construct: made in house; host or cells: Chinese Hamster Ovary cells
# T1 sequence (P19235 25-250 limits assumed): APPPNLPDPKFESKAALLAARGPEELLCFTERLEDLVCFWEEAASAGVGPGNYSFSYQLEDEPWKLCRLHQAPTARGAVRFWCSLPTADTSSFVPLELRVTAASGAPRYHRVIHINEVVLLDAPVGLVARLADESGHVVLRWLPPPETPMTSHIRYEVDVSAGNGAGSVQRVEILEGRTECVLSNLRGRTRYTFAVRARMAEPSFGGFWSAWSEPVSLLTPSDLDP
# Source text: Competitive binding calculations are made using an assay in which a light signal is generated as a function of the proximity of two beads: a streptavidin donor bead bearing a biotinylated EPO-R-binding peptide tracer and an acceptor bead to which is bound EPO-R. Light is generated by non-radiative energy transfer, during which a singlet oxygen is released from a first bead upon illumination, and contact with the released singlet oxygen causes the second bead to emit light. These bead sets are commercially available (Packard). Bead proximity is generated by the binding of the EPO-R-binding peptide tracer to the EPO-R. A test peptide that competes with the EPO-R-binding peptide tracer for binding to EPO-R will prevent this binding, causing a decrease in light emission.
# In more detail the method is as follows: Add 4 μL of serial dilutions of the test EPO-R agonist peptide, or positive or negative controls, to wells of a 384 well plate. Thereafter, add 2 μL/well of receptor/bead cocktail. […]
# Centrifuge 1 min to mix. […] After 18 hours read light emission using an AlphaQuest reader (Packard). […]
# [2] = test system: human, bone marrow derived CD34+ cells; test: C/BFU-e assay (erythroid colony formation); type: cell-based; conditions: Table 2; colonies 90% of maximum relative to EPO control, 14 days
# Source text: EPO-R signaling stimulates the differentiation of bone marrow stem cells into proliferating red blood cell presursors. This assay measures the ability of test peptides to stimulate the proliferation and differentiation of red blood cell precursors from primary human bone marrow pluripotent stem cells.
# For this assay, serial dilutions of test peptide are made in IMDM medium (Gibco) supplemented with 10% FBS (Hyclone). […] The methylcellulose and peptide mixture is then vortexed thoroughly. Aliquots (100,000 cells/mL) of human, bone marrow derived CD34+ cells (Poietics/Cambrex) are thawed. The thawed cells are gently added to 0.1 mL of 1 mg/ml DNAse (Stem Cells) in a 50 mL tube. Next, 40-50 mL IMDM medium is added gently to cells: the medium is added drop by drop along the side of the 50 mL tube for the first 10 mL, and then the remaining volume of medium is slowly dispensed along the side of the tube. The cells are then spun at 900 rpm for 20 min, and the media removed carefully by gentle aspiration. The cells are resuspended in 1 ml of IMDM medium and the cell density per mL is counted on hemacytometer slide (10 μL aliquot of cell suspension on slide, and cell density is the average count×10,000 cells/ml). The cells are then diluted in IMDM medium to a cell density of 15,000 cells/mL. A 100 μL of diluted cells is then added to each 1.5 mL methyl cellulose plus peptide sample (final cell concentration in assay media is 1000 cells/mL), and the mixture is vortexed. Allow the bubbles in the mixture to disappear, and then aspirate 1 mL using blunt-end needle. Add 0.25 mL aspirated mixture from each sample into each of 4 wells of a 24-well plate (Falcon brand). Incubate the plated mixtures at 37° C. under 5% CO2 in a humid incubator for 14 days. Score for the presence of erythroid colonies using a phase microscope (5×-10× objective, final magnification of 100×).
# EPO-R signaling stimulates the differentiation of bone marrow stem cells into proliferating red blood cell precursors. […]
# [3] = biological target: chimeric receptor comprising the extra-cellular portion of the human EPO receptor to the intra-cellular portion of the human GCSF receptor; test: Reporter assay (Baf3/EpoR/GCSFR fos/lux luciferase); type: cell-based; conditions: Table 2; Baf3/EpoR/GCSFR fos/lux cells, 4 h
# Source text: This assay is based upon a on a murine pre-B-cell line derived reporter cell, Baf3/EpoR/GCSFR fos/lux. This reporter cell line expresses a chimeric receptor comprising the extra-cellular portion of the human EPO receptor to the intra-cellular portion of the human GCSF receptor. This cell line is further transfected with a fos promoter-driven luciferase reporter gene construct. Activation of this chimeric receptor through addition of erythropoietic agent results in the expression of the luciferase reporter gene, and therefore the production of light upon addition of the luciferase substrate luciferin. Thus, the level of EPO-R activation in such cells may be quantitated via measurement of luciferase activity.
# The Baf3/EpoR/GCSFR fos/lux cells are cultured in DMEM/F12 medium (Gibco) supplemented with 10% fetal bovine serum (FBS; Hyclone), 10% WEHI-3 supernatant (the supernatant from a culture of WEHI-3 cells, ATCC #TIB-68), and penicillin/streptomycin. […] Following a 5-minute incubation, light emission is measured on a Packard Topcount Luminometer (Packard Instrument Co., Downers Grove, Ill.). Light counts are plotted relative to test peptide concentration and analysed using Graph Pad software. The concentration of test peptide that results in a half-maximal emission of light is recorded as the EC50 [See Table 2: Reporter EC50]. […]
Substance,IC50 [1] [nM],EC90 [2] [nM],EC50 [3] [nM]
"peptide dimer of monomers (AcG)GLYACHMGPIT(1-nal)VCQPLR(MeG) (SEQ ID NO: 3) [Peptide II] (Ac-GGLYACHMGPIT[1Nal]VCQPLR[Sar]; disulfide 6-15 (inferred); not fully specified (residue 1); printed as (AcG)GLYACHMGPIT(1-nal)VCQPLR(MeG); also: homodimer, dimer linkage not given here)",0.11,2.2,–
"peptide dimer of monomers (AcG)GLYACHMGPIT(1-nal)VCQPLR(MeG) (SEQ ID NO: 3) [Peptide III] (Ac-GGLYACHMGPIT[1Nal]VCQPLR[Sar]; disulfide 6-15 (inferred); not fully specified (residue 1); printed as (AcG)GLYACHMGPIT(1-nal)VCQPLR(MeG); also: homodimer, dimer linkage not given here)",–,2.7,0.15
